# According to patent US20050013835A1, “Stable non-dihydrate azithromycin oral suspensions” (Pfizer Inc., priority 2003, published 2005):
# Read-outs that look alike come from different tables or passages of the source.
# How the values were obtained:
# [1] = Stability of non-dihydrate azithromycin in constituted suspension: conversion to dihydrate (form A) quantified by SS-NMR; format: physicochemical; conditions: for rate of conversion to azithromycin dihydrate in POS formulation II suspension as compared to bulk drug suspended in deionized water: 5° C. or 30° C., 1 to 10 days
# Experimental: These POS formulations were created by individually weighing each formulation component into a 60-cc High Density Polyethylene (HDPE) bottle with closure. The resulting formulations were then dry-mixed with a Turbula blender (Glen Mills Inc. Maywood, N.J.) for 5 minutes. The powder blends were then constituted with 18 mls of water, shaken for 30 seconds and stored without agitation under controlled temperature conditions.
# Upon conclusion of the storage time period the suspensions were filtered and suspended solids collected as described previously.
# [2] = Surface tension of aqueous additive solution (Wilhelmy plate or literature); format: physicochemical; conditions: aqueous solution at the concentration used in the suspension (1 % w/v), Kruss Tensiometer, Wilhemy plate, room temperature
# [3] = Addition of polymeric and surfactant components to slow form F conversion in formulation II (SS-NMR); format: physicochemical; conditions: additive level 1 % w/v, 18 ml water, 24 hours room temperature
# Experimental: (§1) Upon conclusion of the storage time period the POS samples were filtered using a Buchner funnel in combination with a standard vacuum filtration apparatus. A Millipore prefilter (AP25, 47 mm) was fitted onto the funnel for the collection of suspended solids. Before filtering, the constituted POS sample was poured into a 200 ml volumetric flask and diluted to 200 ml with water. This lowered the viscosity of the sample, facilitating a quick filtration step. With the vacuum on, the diluted POS samples were poured onto the Millipore prefilter. The isolated filtrate remaining on top of the prefilter was then allowed to stand for 2-minutes in order to dry. […] After drying, the collected filtrate was placed into 4 cc Sunbroker vials and analyzed via Solid-State Nuclear Magnetic Resonance (SS-NMR) for quantification of conversion to azithromycin dihydrate (form A).
# (§2) Approximately 300 mg of sample were tightly packed into a 7 mm ZrO spinner for each sample analyzed. […]
# (§3) Eight pairs of resolved peaks were identified to calibrate ratios of form A in the presence of form G, N, M or F. Integral intensities of all peaks were used as input for the calibration procedure using five different binary mixtures ranging from 3 to 81% of form A with each non-dihydrate form. […] The unknown percentages of form A were then determined from the appropriate calibration graphs. […]
# [4] = Addition of polymeric and surfactant components to slow form M conversion in formulation II (SS-NMR); format: physicochemical; conditions: additive level 1 % w/v, 18 ml water, 24 hours room temperature
# Experimental: as §1, §2, §3
# [5] = Literature value (Johnson, Kreuter and Zografi, Colloids and Surfaces 17 (1986) 325-342); cited from earlier work
# [6] = Effect of individual flavorings and sucrose on conversion of form G to form A in pH 8.16 buffer (SS-NMR); format: physicochemical; conditions: 820 mg form G + 200 mg flavoring or sucrose, 18 ml pH 8.16 buffer, room temperature
# [7] = Effect of sucrose vehicle viscosity on conversion in flavoring-free form G suspensions (SS-NMR); format: physicochemical; conditions: 820 mg form G, no flavoring, room temperature
# Experimental: (§4) Upon conclusion of the storage time period the POS samples were filtered using a Buchner funnel in combination with a standard vacuum filtration apparatus. A Millipore prefilter (AP25, 47 mm) was fitted onto the funnel for the collection of suspended solids. Before filtering, the constituted POS sample was poured into a 200 ml volumetric flask and diluted to 200 ml with water. This lowered the viscosity of the sample, facilitating a quick filtration step. With the vacuum on, the diluted POS samples were poured onto the Millipore prefilter. The isolated filtrate remaining on top of the prefilter was then allowed to stand for 2-minutes in order to dry. Vacuum was applied to the filtration apparatus during this drying step. Suspensions containing only bulk drug were transferred directly onto the filter paper upon completion of storage, without the described dilution step during sample preparation. After drying, the collected filtrate was placed into 4 cc Sunbroker vials and analyzed via Solid-State Nuclear Magnetic Resonance (SS-NMR) for quantification of conversion to azithromycin dihydrate (form A).
# (§5) Approximately 300 mg of sample were tightly packed into a 7 mm ZrO spinner for each sample analyzed. One-dimensional ^13C spectra were collected at ambient pressure using ^1H-^13C cross-polarization magic angle spinning (CPMAS) at 295 K on a Bruker 7 mm BL CPMAS probe positioned into a wide-bore Bruker Avance DSX 500 MHz NMR spectrometer (Bruker BioSpin Corporation; Billerica, Mass.). The samples were spun at 7000 Hz corresponding to the maximum specified spinning speed for the 7 mm spinners. The fast spinning speed minimized the intensities of the spinning side bands. To optimize the signal sensitivity, the cross-polarization contact time was adjusted to 2.3 ms and the decoupling power was set to 65 kHz. Typically, a total of 600 scans were acquired, resulting in approximately a 30 minute acquisition time. The spectra were referenced using an external sample of adamantane with its most upfield resonance set to 29.5 ppm.
# (§6) Eight pairs of resolved peaks were identified to calibrate ratios of form A in the presence of form G, N, M or F. Integral intensities of all peaks were used as input for the calibration procedure using five different binary mixtures ranging from 3 to 81% of form A with each non-dihydrate form. From this, one non-linear calibration graph was generated for each pair of peaks and each form. For the experimental samples, only the peaks that were totally void from excipient overlap were preferentially integrated. The unknown percentages of form A were then determined from the appropriate calibration graphs. The final result for each sample analyzed was calculated as a weighted average of the determinations from each resolved peak pair.
# (§7) Viscosifying agents were incorporated into POS formulations in the absence of conversion enhancers, such as flavoring components. Specifically, a series of viscous media was prepared by dissolving various amounts of either sucrose or sorbitol in a 0.22 M phosphate buffer solution. Each solution was then adjusted with sodium hydroxide to bring the mixture to a pH of 7.8. The viscosity of each constitution media was measured using a Brookfield digital viscometer (model DV-II) equipped with a 13R sample chamber and #18 spindle. A heating jacket was also used to maintain the 8 ml sample volume to a temperature of 21° C. during measurements. 18 mls of each viscous media were then used to constitute 820 mg of form G azithromycin. The resulting suspensions were stored at room temperature for both 5 and 10-days. Upon conclusion of the storage time period the constituted samples were filtered and analyzed by SS-NMR for quantitation of dihydrate species present.
# [8] = Effect of sorbitol vehicle viscosity on conversion in flavoring-free form G suspensions (SS-NMR); format: physicochemical; conditions: 820 mg form G, no flavoring, room temperature
# Experimental: as §4, §5, §6, §7
# [9] = Bulk drug in 18 ml water, 5° C., day 1
# [10] = Bulk drug in 18 ml water, 5° C., day 10
# [11] = Bulk drug in 18 ml water, 30° C., day 1
# [12] = Bulk drug in 18 ml water, 30° C., day 10
# [13] = Formulation II constituted with 18 ml water, 5° C., day 1
# [14] = Formulation II constituted with 18 ml water, 5° C., day 10
# [15] = Formulation II constituted with 18 ml water, 30° C., day 1
# [16] = Formulation II constituted with 18 ml water, 30° C., day 10
# [17] = Bulk drug in 18 ml water, 5° C., day 5
# [18] = Bulk drug in 18 ml water, 30° C., day 5
# [19] = Formulation II constituted with 18 ml water, 5° C., day 5
# [20] = Formulation II constituted with 18 ml water, 30° C., day 5
# [21] = 18 ml 0.0 mg/ml sucrose solution pH 7.8, viscosity 1.2 cP
# [22] = 18 ml 0.8 mg/ml sucrose solution pH 7.8, viscosity 10.2 cP
# [23] = 18 ml 1.1 mg/ml sucrose solution pH 7.8, viscosity 20.2 cP
# [24] = 18 ml 1.4 mg/ml sucrose solution pH 7.8, viscosity 41.7 cP
# [25] = 18 ml 1.8 mg/ml sucrose solution pH 7.8, viscosity 105.0 cP
# [26] = 18 ml 0.0 mg/ml sorbitol solution pH 7.8, viscosity ˜1 cP
# [27] = 18 ml 1.02 mg/ml sorbitol solution pH 7.8, viscosity 3.4 cP
# [28] = 18 ml 1.54 mg/ml sorbitol solution pH 7.8, viscosity 21.0 cP
# [29] = 18 ml 2.04 mg/ml sorbitol solution pH 7.8, viscosity 130.9 cP
structure (smiles),measurement,setting,value
"CCC1OC(=O)C(C)C(O[C@H]2C[C@@](C)(OC)[C@@H](O)C(C)O2)C(C)[C@@H](OC2OC(C)CC(N(C)C)[C@H]2O)[C@@](C)(O)C[C@@H](C)CN(C)[C@H](C)[C@@H](O)[C@]1(C)O (some centres unmarked) [Form F, azithromycin monohydrate hemi-ethanol solvate]",rate of conversion to azithromycin dihydrate in POS formulation II suspension as compared to bulk drug suspended in deionized water,[1],much greater rates
same,% A,[1]; [9],0%
same,% A,[1]; [10],0%
same,% A,[1]; [11],0%
same,% A,[1]; [12],0%
same,% A,[1]; [13],6%
same,% A,[1]; [14],27%
same,% A,[1]; [15],19%
same,% A,[1]; [16],31%
"CCC1OC(=O)C(C)C(O[C@H]2C[C@@](C)(OC)[C@@H](O)C(C)O2)C(C)[C@@H](OC2OC(C)CC(N(C)C)[C@H]2O)[C@@](C)(O)C[C@@H](C)CN(C)[C@H](C)[C@@H](O)[C@]1(C)O (some centres unmarked) [Form J, azithromycin monohydrate hemi-n-propanol solvate]",rate of conversion to azithromycin dihydrate in POS formulation II suspension as compared to bulk drug suspended in deionized water,[1],did not exhibit a greater conversion rate
same,% A,[1]; [13],0%
same,% A,[1]; [14],0%
same,% A,[1]; [15],0%
same,% A,[1]; [16],0%
CCCCCCCCCCCCOS(=O)(=O)[O-].[Na+] [Sodium Lauryl Sulfate],Surface Tension,[2],35.8^2 dyne/cm
same,% Conversion to Form A Relative to the Control Sample,[3],0%
same,% Conversion to Form A Relative to the Control Sample,[4],0%
CCCCCCCCOC(=O)CC(C(=O)OCCCCCCCC)S(=O)(=O)O.[Na] (centres unmarked) [Sodium Dioctyl Sulfosuccinate],Surface Tension,[5],25.6^1 dyne/cm
same,% Conversion to Form A Relative to the Control Sample,[3],0%
same,% Conversion to Form A Relative to the Control Sample,[4],0%
OC[C@H]1O[C@@](CO)(O[C@H]2O[C@H](CO)[C@@H](O)[C@H](O)[C@H]2O)[C@@H](O)[C@@H]1O [Sucrose],Δ % Form A,[6]; constituted 1 day,2%
same,Δ % Form A,[6]; constituted 5 days,1%
same,Δ % Form A,[6]; constituted 10 days,6%
same,Δ % Form A,"[6]; constituted 10 days, listed as sucrose",only minimal conversion to form A
"CCC1OC(=O)C(C)C(O[C@H]2C[C@@](C)(OC)[C@@H](O)C(C)O2)C(C)[C@@H](OC2OC(C)CC(N(C)C)[C@H]2O)[C@@](C)(O)C[C@@H](C)CN(C)[C@H](C)[C@@H](O)[C@]1(C)O (some centres unmarked) [Form M, azithromycin monohydrate hemi-isopropanol solvate]",rate of conversion to azithromycin dihydrate in POS formulation II suspension as compared to bulk drug suspended in deionized water,[1],much greater rates
same,% A,[1]; [9],0%
same,% A,[1]; [17],0%
same,% A,[1]; [10],0%
same,% A,[1]; [11],0%
same,% A,[1]; [18],0%
same,% A,[1]; [12],0%
same,% A,[1]; [13],23%
same,% A,[1]; [19],38%
same,% A,[1]; [14],40%
same,% A,[1]; [15],28%
same,% A,[1]; [20],36%
same,% A,[1]; [16],62%
"CC[C@H]1OC(=O)[C@H](C)[C@@H](O[C@H]2C[C@@](C)(OC)[C@@H](O)[C@H](C)O2)[C@H](C)[C@@H](O[C@@H]2O[C@H](C)C[C@H](N(C)C)[C@H]2O)[C@](C)(O)C[C@@H](C)CN(C)[C@H](C)[C@@H](O)[C@]1(C)O [Form G, azithromycin sesquihydrate]",5-day Storage (% Form A),[7]; [21],20%
same,10-day Storage (% Form A),[7]; [21],55%
same,5-day Storage (% Form A),[7]; [22],5%
same,10-day Storage (% Form A),[7]; [22],12%
same,5-day Storage (% Form A),[7]; [23],5%
same,10-day Storage (% Form A),[7]; [23],6%
same,5-day Storage (% Form A),[7]; [24],1%
same,10-day Storage (% Form A),[7]; [24],3%
same,5-day Storage (% Form A),[7]; [25],0%
same,10-day Storage (% Form A),[7]; [25],0%
same,5-day Storage (% Form A),[8]; [26],35%
same,10-day Storage (% Form A),[8]; [26],100%
same,5-day Storage (% Form A),[8]; [27],7%
same,10-day Storage (% Form A),[8]; [27],7%
same,5-day Storage (% Form A),[8]; [28],0%
same,10-day Storage (% Form A),[8]; [28],0%
same,5-day Storage (% Form A),[8]; [29],0%
same,10-day Storage (% Form A),[8]; [29],0%
same,rate of conversion to azithromycin dihydrate in POS formulation II suspension as compared to bulk drug suspended in deionized water,[1],much greater rates
same,% A,[1]; [9],1%
same,% A,[1]; [17],6%
same,% A,[1]; [10],12%
same,% A,[1]; [11],3%
same,% A,[1]; [18],26%
same,% A,[1]; [12],73%
same,% A,[1]; [13],72%
same,% A,[1]; [19],75%
same,% A,[1]; [14],78%
same,% A,[1]; [15],82%
same,% A,[1]; [20],74%
same,% A,[1]; [16],76%
